# According to US9745320B2, “Five-and-six-membered heterocyclic compound, and preparation method, pharmaceutical composition and use thereof” (SHANGHAI CHEMEXPLORER CO., LTD., priority 2013, dated 2017):
# What was measured:
# Type in all cases: biochemical
# [1] = molecular target: T1, JAK3 (Homo sapiens, UniProt P52333); assay: JAK 3 enzymatic inhibitory activity IC50 assay (Caliper conversion rate); conditions: Km ATP, 28° C., 1 hour; read-out: JAK 3 enzymatic inhibitory activity IC50
# T1 sequence (P52333 1-1124): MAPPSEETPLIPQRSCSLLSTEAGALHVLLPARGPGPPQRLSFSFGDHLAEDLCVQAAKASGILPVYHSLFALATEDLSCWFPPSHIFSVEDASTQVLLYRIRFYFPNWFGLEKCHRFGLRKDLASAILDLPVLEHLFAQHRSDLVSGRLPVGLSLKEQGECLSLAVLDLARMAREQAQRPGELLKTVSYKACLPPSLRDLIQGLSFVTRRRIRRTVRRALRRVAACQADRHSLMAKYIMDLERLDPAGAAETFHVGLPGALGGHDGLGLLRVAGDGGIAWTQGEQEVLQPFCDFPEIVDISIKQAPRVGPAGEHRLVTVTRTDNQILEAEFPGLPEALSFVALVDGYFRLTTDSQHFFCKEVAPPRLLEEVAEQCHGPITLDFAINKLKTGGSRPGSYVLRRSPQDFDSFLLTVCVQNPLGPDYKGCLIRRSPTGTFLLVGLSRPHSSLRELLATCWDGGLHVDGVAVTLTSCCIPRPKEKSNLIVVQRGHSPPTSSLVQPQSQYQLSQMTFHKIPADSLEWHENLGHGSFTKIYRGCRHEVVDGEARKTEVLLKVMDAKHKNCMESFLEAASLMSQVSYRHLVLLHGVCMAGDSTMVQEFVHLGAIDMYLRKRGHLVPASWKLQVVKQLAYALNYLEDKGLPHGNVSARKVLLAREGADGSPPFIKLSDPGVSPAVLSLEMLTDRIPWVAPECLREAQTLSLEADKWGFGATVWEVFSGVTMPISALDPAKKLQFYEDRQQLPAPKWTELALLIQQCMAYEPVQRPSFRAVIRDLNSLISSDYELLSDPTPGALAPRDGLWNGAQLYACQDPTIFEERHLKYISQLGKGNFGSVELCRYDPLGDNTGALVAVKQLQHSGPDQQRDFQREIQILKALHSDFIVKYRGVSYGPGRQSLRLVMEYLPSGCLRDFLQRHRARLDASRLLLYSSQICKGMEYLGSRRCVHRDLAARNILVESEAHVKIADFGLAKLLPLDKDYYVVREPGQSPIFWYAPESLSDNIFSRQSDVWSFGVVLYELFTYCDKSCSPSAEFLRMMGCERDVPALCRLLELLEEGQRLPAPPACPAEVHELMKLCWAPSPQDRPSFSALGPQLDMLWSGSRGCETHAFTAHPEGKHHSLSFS
# [2] = molecular target: JAK1 (Homo sapiens, UniProt P23458); assay: JAK 1 enzymatic inhibitory activity IC50 assay (Caliper conversion rate); conditions: Km ATP, 28° C., 1 hour
# Chain of JAK1 (P23458 whole entry, species assumed): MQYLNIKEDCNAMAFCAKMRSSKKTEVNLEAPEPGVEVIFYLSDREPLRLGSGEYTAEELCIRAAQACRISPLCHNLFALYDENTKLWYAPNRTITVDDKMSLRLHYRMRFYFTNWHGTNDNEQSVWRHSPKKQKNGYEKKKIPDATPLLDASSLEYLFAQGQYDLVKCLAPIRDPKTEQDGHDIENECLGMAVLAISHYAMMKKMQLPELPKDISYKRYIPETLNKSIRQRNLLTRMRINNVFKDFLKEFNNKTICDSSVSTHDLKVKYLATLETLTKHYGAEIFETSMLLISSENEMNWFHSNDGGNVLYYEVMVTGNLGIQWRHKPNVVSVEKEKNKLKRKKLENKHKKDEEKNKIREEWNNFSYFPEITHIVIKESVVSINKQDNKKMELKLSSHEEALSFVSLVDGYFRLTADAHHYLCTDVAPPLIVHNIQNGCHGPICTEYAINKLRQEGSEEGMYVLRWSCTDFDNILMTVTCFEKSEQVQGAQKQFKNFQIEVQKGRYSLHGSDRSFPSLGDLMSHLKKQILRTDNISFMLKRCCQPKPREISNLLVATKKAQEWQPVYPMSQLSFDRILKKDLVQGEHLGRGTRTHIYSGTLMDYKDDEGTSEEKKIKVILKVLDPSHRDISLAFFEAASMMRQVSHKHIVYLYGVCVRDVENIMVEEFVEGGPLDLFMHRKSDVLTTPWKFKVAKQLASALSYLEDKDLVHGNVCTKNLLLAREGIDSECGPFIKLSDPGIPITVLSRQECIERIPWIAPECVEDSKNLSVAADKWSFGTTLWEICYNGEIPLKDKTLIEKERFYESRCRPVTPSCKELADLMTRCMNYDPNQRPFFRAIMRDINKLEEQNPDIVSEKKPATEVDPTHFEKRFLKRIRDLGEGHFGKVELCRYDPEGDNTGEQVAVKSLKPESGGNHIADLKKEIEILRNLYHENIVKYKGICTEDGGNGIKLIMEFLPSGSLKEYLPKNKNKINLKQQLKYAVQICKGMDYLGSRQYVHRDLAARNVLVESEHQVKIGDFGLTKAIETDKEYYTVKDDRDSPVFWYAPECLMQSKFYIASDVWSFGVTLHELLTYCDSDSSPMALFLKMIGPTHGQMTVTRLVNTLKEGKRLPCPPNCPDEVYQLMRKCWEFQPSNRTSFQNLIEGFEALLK
# Procedure, shortened: (§1)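 Human JAK1 or JAK2 enzyme was preincubated with graded compound (2% DMSO) in HEPES pH 7.5/Brij-35/DTT buffer (JAK1 also with Triton), then peptide substrate, 10 mM MgCl2 and ATP at Km were added. Reactions ran 1 hour at 28° C; Caliper conversion rate gave inhibition, averaged over two tests, for IC50.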
# [3] = molecular target: JAK2 (Homo sapiens, UniProt O60674); assay: JAK 2 enzymatic inhibitory activity IC50 assay (Caliper conversion rate); conditions: Km ATP, 28° C., 1 hour
# Chain of JAK2 (O60674 whole entry, species assumed): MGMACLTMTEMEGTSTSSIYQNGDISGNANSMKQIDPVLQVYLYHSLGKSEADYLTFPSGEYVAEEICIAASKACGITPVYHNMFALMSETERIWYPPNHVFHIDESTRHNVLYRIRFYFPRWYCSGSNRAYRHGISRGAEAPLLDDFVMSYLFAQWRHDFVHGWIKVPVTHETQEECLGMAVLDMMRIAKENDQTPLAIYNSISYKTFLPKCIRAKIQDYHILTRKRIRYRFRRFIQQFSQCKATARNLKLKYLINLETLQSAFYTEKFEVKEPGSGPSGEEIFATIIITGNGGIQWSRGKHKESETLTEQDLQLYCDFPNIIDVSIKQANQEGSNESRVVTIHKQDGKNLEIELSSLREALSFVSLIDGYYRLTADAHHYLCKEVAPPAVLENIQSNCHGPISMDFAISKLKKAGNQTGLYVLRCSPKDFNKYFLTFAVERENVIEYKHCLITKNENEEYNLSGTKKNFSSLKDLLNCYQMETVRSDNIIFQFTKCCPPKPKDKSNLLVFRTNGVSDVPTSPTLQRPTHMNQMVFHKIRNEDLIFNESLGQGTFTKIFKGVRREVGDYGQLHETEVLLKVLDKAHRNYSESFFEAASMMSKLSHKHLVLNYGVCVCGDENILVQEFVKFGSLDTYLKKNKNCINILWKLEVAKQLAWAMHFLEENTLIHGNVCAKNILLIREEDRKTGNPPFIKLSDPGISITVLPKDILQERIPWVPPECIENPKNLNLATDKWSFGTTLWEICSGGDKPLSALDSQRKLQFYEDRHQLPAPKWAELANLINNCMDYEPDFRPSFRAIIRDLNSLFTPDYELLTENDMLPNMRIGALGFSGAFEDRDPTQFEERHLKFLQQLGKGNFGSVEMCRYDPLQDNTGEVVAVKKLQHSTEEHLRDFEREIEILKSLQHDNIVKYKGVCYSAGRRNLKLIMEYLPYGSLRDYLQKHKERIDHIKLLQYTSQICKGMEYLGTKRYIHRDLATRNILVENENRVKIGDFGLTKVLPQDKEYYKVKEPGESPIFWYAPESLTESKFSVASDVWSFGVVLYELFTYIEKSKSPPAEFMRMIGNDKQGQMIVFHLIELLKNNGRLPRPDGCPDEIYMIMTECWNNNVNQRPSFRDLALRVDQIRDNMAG
# Procedure, shortened: as §1
Structure (SMILES),IC50 [1] [nM],IC50 [2] [nM],IC50 [3] [nM]
"N#CCC1(n2cc(-c3nc(Nc4cnn(C5CC5)c4)nc4ccsc34)cn2)CC1 [Compound T-76, 2-(1-(4-(2-((1-Cyclopropyl-1H-pyrazol-4-yl)amino)thieno[3,2-d]pyrimidin-4-yl)-1H-pyrazol-1-yl)cyclopropyl)acetonitrile]",50 to 500,50 to 500,< 50
"Cn1cc(Nc2nc(-c3cnn(C4(CC#N)CC(F)C4)c3)c3sccc3n2)cn1 (stereo not drawn) [Compound T-77, 2-(3-Fluoro-1-(4-(2-((1-methyl-1H-pyrazol-4-yl)amino)thieno[3,2-d]pyrimidin-4-yl)-1H-pyrazol-1-yl)cyclobutyl)acetonitrile]",50 to 500,50 to 500,< 50
"C[C@@H](O)Cn1cc(Nc2nc(-c3cnn(C4(CC#N)COC4)c3)c3sccc3n2)cn1 [Compound T-80, (R)-2-(3-(4-(2-((1-(2-Hydroxypropyl)-1H-pyrazol-4-yl)amino)thieno[3,2-d]pyrimidin-4-yl)-1H-pyrazol-1-yl)oxetan-3-yl)acetonitrile]",50 to 500,50 to 500,< 50
"C[C@H](O)Cn1cc(Nc2nc(-c3cnn(C4(CC#N)COC4)c3)c3sccc3n2)cn1 [Compound T-81, (S)-2-(3-(4-(2-((1-(2-Hydroxypropyl)-1H-pyrazol-4-yl)amino)thieno[3,2-d]pyrimidin-4-yl)-1H-pyrazol-1-yl)oxetan-3-yl)acetonitrile]",50 to 500,50 to 500,< 50
"C[C@H](CO)n1cc(Nc2nc(-c3cnn(C4(CC#N)COC4)c3)c3sccc3n2)cn1 [Compound T-82, (R)-2-(3-(4-(2-((1-(1-Hydroxypropan-2-yl)-1H-pyrazol-4-yl)amino)thieno[3,2-d]pyrimidin-4-yl)-1H-pyrazol-1-yl)oxetan-3-yl)acetonitrile]",50 to 500,50 to 500,< 50
"C[C@@H](CO)n1cc(Nc2nc(-c3cnn(C4(CC#N)COC4)c3)c3sccc3n2)cn1 [Compound T-83, (S)-2-(3-(4-(2-((1-(1-Hydroxypropan-2-yl)-1H-pyrazol-4-yl)amino)thieno[3,2-d]pyrimidin-4-yl)-1H-pyrazol-1-yl)oxetan-3-yl)acetonitrile]",50 to 500,< 50,< 50

# More lines, now with the values ahead:
IC50 [1] [nM],IC50 [2] [nM],IC50 [3] [nM],Structure (SMILES)
50 to 500,50 to 500,< 50,"Cn1cc(Nc2nc(-c3cnn(C4(CC#N)CC4)c3)c3sccc3n2)cn1 [Compound T-75, 2-(1-(4-(2-((1-Methyl-1H-pyrazol-4-yl)amino)thieno[3,2-d]pyrimidin-4-yl)-1H-pyrazol-1-yl)cyclopropyl)acetonitrile]"
< 50,< 50,< 50,"CC(C)(O)Cn1cc(Nc2nc(-c3cnn(C4(CC#N)CN(S(C)(=O)=O)C4)c3)c3sccc3n2)cn1 [Compound T-78, 2-(3-(4-(2-((1-(2-Hydroxy-2-methylpropyl)-1H-pyrazol-4-yl)amino)thieno[3,2-d]pyrimidin-4-yl)-1H-pyrazol-1-yl)-1-(methylsulfonyl)azetidin-3-yl)acetonitrile]"
< 50,< 50,< 50,"CC(C)(CO)n1cc(Nc2nc(-c3cnn(C4(CC#N)CN(S(C)(=O)=O)C4)c3)c3sccc3n2)cn1 [Compound T-79, 2-(3-(4-(2-((1-(1-Hydroxy-2-methylpropan-2-yl)-1H-pyrazol-4-yl)amino)thieno[3,2-d]pyrimidin-4-yl)-1H-pyrazol-1-yl)-1-(methylsulfonyl)azetidin-3-yl)acetonitrile]"
< 50,< 50,< 50,"C[C@H](CO)n1cc(Nc2nc(-c3cnn(C4(CC#N)CN(S(C)(=O)=O)C4)c3)c3sccc3n2)cn1 [Compound T-84, (R)-2-(3-(4-(2-((1-(1-Hydroxypropan-2-yl)-1H-pyrazol-4-yl)amino)thieno[3,2-d]pyrimidin-4-yl)-1H-pyrazol-1-yl)-1-(methylsulfonyl)azetidin-3-yl)acetonitrile]"
< 50,< 50,< 50,"C[C@@H](CO)n1cc(Nc2nc(-c3cnn(C4(CC#N)CN(S(C)(=O)=O)C4)c3)c3sccc3n2)cn1 [Compound T-85, (S)-2-(3-(4-(2-((1-(1-Hydroxypropan-2-yl)-1H-pyrazol-4-yl)amino)thieno[3,2-d]pyrimidin-4-yl)-1H-pyrazol-1-yl)-1-(methylsulfonyl)azetidin-3-yl)acetonitrile]"
< 50,< 50,< 50,"C[C@@H](O)Cn1cc(Nc2nc(-c3cnn(C4(CC#N)CN(S(C)(=O)=O)C4)c3)c3sccc3n2)cn1 [Compound T-86, (R)-2-(3-(4-(2-((1-(2-Hydroxypropyl)-1H-pyrazol-4-yl)amino)thieno[3,2-d]pyrimidin-4-yl)-1H-pyrazol-1-yl)-1-(methylsulfonyl)azetidin-3-yl)acetonitrile]"
< 50,< 50,< 50,"C[C@H](O)Cn1cc(Nc2nc(-c3cnn(C4(CC#N)CN(S(C)(=O)=O)C4)c3)c3sccc3n2)cn1 [Compound T-87, (S)-2-(3-(4-(2-((1-(2-Hydroxypropyl)-1H-pyrazol-4-yl)amino)thieno[3,2-d]pyrimidin-4-yl)-1H-pyrazol-1-yl)-1-(methylsulfonyl)azetidin-3-yl)acetonitrile]"
